Data from patent US8106055B2, “Substituted amide compounds” (Gruenenthal GmbH, priority 2007, dated 2012).

What was measured:
[1] = molecular target: T1, bradykinin 1 receptor (B1R) of the rat (Rattus norvegicus, UniProt P97583); assay: Functional investigation on the rat bradykinin 1 receptor (B1R), Ca2+ FLIPR assay in CHO K1 rB1R cells; format: cell-based; conditions: B1R antagonism rat; test substance 10 μM; Ca2+ FLIPR, CHO K1 rB1R cells
T1 construct: expressed in transfected cells; host or cells: CHO K1 cells
T1 sequence (P97583 1-337): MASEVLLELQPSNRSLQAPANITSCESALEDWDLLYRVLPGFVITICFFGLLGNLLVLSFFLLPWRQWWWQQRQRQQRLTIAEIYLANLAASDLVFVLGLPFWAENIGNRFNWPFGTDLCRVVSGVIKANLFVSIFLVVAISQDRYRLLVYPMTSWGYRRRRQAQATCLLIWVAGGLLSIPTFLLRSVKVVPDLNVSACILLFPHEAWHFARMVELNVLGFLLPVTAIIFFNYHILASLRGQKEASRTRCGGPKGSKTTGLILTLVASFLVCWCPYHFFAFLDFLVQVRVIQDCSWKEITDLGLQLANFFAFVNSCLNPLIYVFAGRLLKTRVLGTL
Procedure, shortened: (§1)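 Fluo-4 Ca2+ readout, peak fluorescence. Stable CHO K1 transfectants; compound pre-incubated 10-20 min, then EC80 agonist—Lys-Des-Arg9-BK for hB1R, Des-Arg9-BK for rB1R. % inhibition vs maximal inhibition; IC50 from multiple concentrations, duplicate/triplicate, ≥2 independent runs.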

[2] = molecular target: T2, human bradykinin 1 receptor (B1R) (Homo sapiens, UniProt P46663); assay: Functional investigation on the human bradykinin 1 receptor (B1R), Ca2+ FLIPR assay in CHO K1 hB1R cells; format: cell-based; conditions: B1R antagonism human; test substance 10 μM; Ca2+ FLIPR, CHO K1 hB1R cells
T2 construct: expressed in transfected cells; host or cells: CHO K1 cells
T2 sequence (P46663 1-353): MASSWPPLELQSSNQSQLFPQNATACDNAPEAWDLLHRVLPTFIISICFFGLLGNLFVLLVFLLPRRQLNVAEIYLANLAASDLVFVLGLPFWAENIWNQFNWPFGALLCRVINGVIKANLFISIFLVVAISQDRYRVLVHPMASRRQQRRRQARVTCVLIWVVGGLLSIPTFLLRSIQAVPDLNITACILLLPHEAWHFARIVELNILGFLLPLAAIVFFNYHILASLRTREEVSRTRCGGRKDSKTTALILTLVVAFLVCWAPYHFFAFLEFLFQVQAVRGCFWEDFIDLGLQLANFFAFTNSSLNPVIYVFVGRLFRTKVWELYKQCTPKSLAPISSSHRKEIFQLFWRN
Procedure, shortened: as §1

| SMILES | B1R Ant. r [10 μM] % Inhibition [1] [%] | B1R Ant. h [10 μM] % Inhibition [2] [%] |
| --- | --- | --- |
| CN(C)C(c1cccc(F)c1)C1CCC(NC(=O)COCCN2CCN(S(=O)(=O)c3ccccc3)CC2)CC1 (stereo not shown) [Example 364] | −9 | 0 |
| CN(C)C(c1ccc(F)cc1)C1CCC(CCNC(=O)COCCN(C)S(=O)(=O)c2c(Cl)cc(Cl)cc2Cl)CC1 (stereo not shown) [Example 386] | 20 | 104 |
